# Legend:
# Format in all cases: cell-based
# [1] = tested on: Parental (Ba/F3); experiment: Ba/F3 cell proliferation inhibition; settings: BaF3; 72 hours, Cell Counting Kit-8
# Method in brief: (§1)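 Parental and T315I-Bcr-Abl Ba/F3 cells, 1×10^4 per well, exposed 72 h at 37 °C to nine 3-fold dilutions, final 0 to 10 μM. Viability by CCK-8 after 2 h, absorbance 450 nm; GI50 fitted from percent of vehicle-treated cells.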
# [2] = tested on: T315I-Bcr-Abl (Ba/F3); experiment: Ba/F3 cell proliferation inhibition; settings: BaF3; 72 hours, Cell Counting Kit-8
# Method in brief: as §1
# [3] = tested on: KOPM28 cells; experiment: human CML cell proliferation inhibition; settings: 72 hours, Cell Counting Kit-8
# Method in brief: (§2)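 Seed 1×10^4 cells/well; add compound, 9 concentrations by 5-fold dilution, final 0–10 μM, or DMSO; incubate 72 h, 37 °C, CO2; add CCK-8 for 2 h; read A450; normalise to vehicle; fit GI50.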
# [4] = tested on: T315I-KOPM28 cells; experiment: human CML cell proliferation inhibition; settings: 72 hours, Cell Counting Kit-8
# Method in brief: as §2
# [5] = tested on: T315I-TCCS cells; experiment: human CML cell proliferation inhibition; settings: 72 hours, Cell Counting Kit-8
# Method in brief: as §2
# [6] = tested on: TCCS cells; experiment: human CML cell proliferation inhibition; settings: 72 hours, Cell Counting Kit-8
# Method in brief: as §2
SMILES,GI50 [1] [nM],GI50 [2] [nM],GI50 [3] [nM],GI50 [4] [nM],GI50 [5] [nM],GI50 [6] [nM]
"Cc1cn(-c2cc(NC(=O)c3cc(C#Cc4cnc5c(Nc6cn[nH]c6)cccn45)c(C)cc3Cl)cc(C(C)(C)C#N)c2)cn1 [Example 76, 5-((8-((1H-pyrazol-4-yl)amino)imidazo[1,2-a]pyridin-3-yl)ethynyl)-2-chloro-N-(3-(2-cyanopropan-2-yl)-5-(4-methyl-1H-imidazol-1-yl)phenyl)-4-methylbenzamide]",> 5000,< 50,< 10,100,100,< 10
"Cc1cc(F)c(C(=O)Nc2cc(-c3cnn(C)c3)cc(C(C)(C)C#N)c2)cc1C#Cc1cnc2c(Nc3cn[nH]c3)cccn12 [Example 77, 5-((8-((1H-pyrazol-4-yl)amino)imidazo[1,2-a]pyridin-3-yl)ethynyl)-N-(3-(2-cyanopropan-2-yl)-5-(1-methyl-1H-pyrazol-4-yl)phenyl)-2-fluoro-4-methylbenzamide]",> 5000,50 to 500,< 10,> 100,100,< 10
"Cc1cc(F)c(C(=O)Nc2cc(-c3ccncc3)cc(C(C)(C)C#N)c2)cc1C#Cc1cnc2c(Nc3cn[nH]c3)cccn12 [Example 78, 5-((8-((1H-pyrazol-4-yl)amino)imidazo[1,2-a]pyridin-3-yl)ethynyl)-N-(3-(2-cyanopropan-2-yl)-5-(pyridin-4-yl)phenyl)-2-fluoro-4-methylbenzamide]",> 5000,50 to 500,100,> 100,> 100,< 10
"Cc1cc(F)c(C(=O)Nc2cc(-c3cccnc3)cc(C(C)(C)C#N)c2)cc1C#Cc1cnc2c(Nc3cn[nH]c3)cccn12 [Example 79, 5-((8-((1H-pyrazol-4-yl)amino)imidazo[1,2-a]pyridin-3-yl)ethynyl)-N-(3-(2-cyanopropan-2-yl)-5-(pyridin-3-yl)phenyl)-2-fluoro-4-methylbenzamide]",> 5000,50 to 500,< 10,> 100,100,< 10
"Cc1cc(F)c(C(=O)Nc2cc(N3CCN(C)CC3)cc(C(C)(C)C#N)c2)cc1C#Cc1cnc2c(Nc3cn[nH]c3)cccn12 [Example 80, 5-((8-((1H-pyrazol-4-yl)amino)imidazo[1,2-a]pyridin-3-yl)ethynyl)-N-(3-(2-cyanopropan-2-yl)-5-(4-methylpiperazin-1-yl)phenyl)-2-fluoro-4-methylbenzamide]",> 5000,50 to 500,< 10,> 100,100,< 10
"Cc1cc(F)c(C(=O)Nc2cc(N(C)CCN(C)C)cc(C(C)(C)C#N)c2)cc1C#Cc1cnc2c(Nc3cn[nH]c3)cccn12 [Example 81, 5-((8-((1H-pyrazol-4-yl)amino)imidazo[1,2-a]pyridin-3-yl)ethynyl)-N-(3-(2-cyanopropan-2-yl)-5-((2-(dimethylamino)ethyl)(methyl)amino)phenyl)-2-fluoro-4-methylbenzamide]",500 to 5000,50 to 500,< 10,> 100,100,< 10
"Cc1cc(F)c(C(=O)Nc2cc(N3CCN(C)C(=O)C3)cc(C(C)(C)C#N)c2)cc1C#Cc1cnc2c(Nc3cn[nH]c3)cccn12 [Example 82, 5-((8-((1H-pyrazol-4-yl)amino)imidazo[1,2-a]pyridin-3-yl)ethynyl)-N-(3-(2-cyanopropan-2-yl)-5-(4-methyl-3-oxopiperazin-1-yl)phenyl)-2-fluoro-4-methylbenzamide]",500 to 5000,50 to 500,< 10,> 100,100,< 10
"Cc1cc(F)c(C(=O)Nc2cc(Oc3ccncc3)cc(C(C)(C)C#N)c2)cc1C#Cc1cnc2c(Nc3cn[nH]c3)cccn12 [Example 83, 5-((8-((1H-pyrazol-4-yl)amino)imidazo[1,2-a]pyridin-3-yl)ethynyl)-N-(3-(2-cyanopropan-2-yl)-5-(pyridin-4-yloxy)phenyl)-2-fluoro-4-methylbenzamide]",500 to 5000,< 50,< 10,100,100,< 10
"Cc1cc(F)c(C(=O)Nc2cc(CN3CCN(C)CC3)cc(C(C)(C)C#N)c2)cc1C#Cc1cnc2c(Nc3cn[nH]c3)cccn12 [Example 84, 5-((8-((1H-pyrazol-4-yl)amino)imidazo[1,2-a]pyridin-3-yl)ethynyl)-N-(3-(2-cyanopropan-2-yl)-5-((4-methylpiperazin-1-yl)methyl)phenyl)-2-fluoro-4-methylbenzamide]",500 to 5000,50 to 500,< 10,> 100,100,< 10
"Cc1cc(F)c(C(=O)Nc2cc(CN3CCC(N(C)C)C3)cc(C(C)(C)C#N)c2)cc1C#Cc1cnc2c(Nc3cn[nH]c3)cccn12 (stereo not drawn) [Example 85, 5-((8-((1H-pyrazol-4-yl)amino)imidazo[1,2-a]pyridin-3-yl)ethynyl)-N-(3-(2-cyanopropan-2-yl)-5-((3-(dimethylamino)pyrrolidin-1-yl)methyl)phenyl)-2-fluoro-4-methylbenzamide]",500 to 5000,50 to 500,< 10,> 100,100,< 10
"Cc1cc(F)c(C(=O)Nc2cc(CN3CCN(CCO)CC3)cc(C(C)(C)C#N)c2)cc1C#Cc1cnc2c(Nc3cn[nH]c3)cccn12 [Example 86, 5-((8-((1H-pyrazol-4-yl)amino)imidazo[1,2-a]pyridin-3-yl)ethynyl)-N-(3-(2-cyanopropan-2-yl)-5-((4-(2-hydroxyethyl)piperazin-1-yl)methyl)phenyl)-2-fluoro-4-methylbenzamide]",500 to 5000,< 50,< 10,100,100,< 10
"Cc1cc(F)c(C(=O)Nc2cc(CN3CCN(S(C)(=O)=O)CC3)cc(C(C)(C)C#N)c2)cc1C#Cc1cnc2c(Nc3cn[nH]c3)cccn12 [Example 87, 5-((8-((1H-pyrazol-4-yl)amino)imidazo[1,2-a]pyridin-3-yl)ethynyl)-N-(3-(2-cyanopropan-2-yl)-5-((4-(methylsulfonyl)piperazin-1-yl)methyl)phenyl)-2-fluoro-4-methylbenzamide]",> 5000,50 to 500,< 10,> 100,100,< 10
"Cc1cc(F)c(C(=O)Nc2cc(CN3CCN(C)C(=O)C3)cc(C(C)(C)C#N)c2)cc1C#Cc1cnc2c(Nc3cn[nH]c3)cccn12 [Example 88, 5-((8-((1H-pyrazol-4-yl)amino)imidazo[1,2-a]pyridin-3-yl)ethynyl)-N-(3-(2-cyanopropan-2-yl)-5-((4-methyl-3-oxopiperazin-1-yl)methyl)phenyl)-2-fluoro-4-methylbenzamide]",500 to 5000,50 to 500,< 10,> 100,> 100,< 10
"Cc1cc(F)c(C(=O)Nc2cc(Cn3cncn3)cc(C(C)(C)C#N)c2)cc1C#Cc1cnc2c(Nc3cn[nH]c3)cccn12 [Example 89, N-(3-((1H-1,2,4-triazol-1-yl)methyl)-5-(2-cyanopropan-2-yl)phenyl)-5-((8-((1H-pyrazol-4-yl)amino)imidazo[1,2-a]pyridin-3-yl)ethynyl)-2-fluoro-4-methylbenzamide]",> 5000,< 50,< 10,100,100,< 10
"Cc1cc(F)c(C(=O)Nc2ccc(CN3CCN(C)CC3)c(C(C)(C)C#N)c2)cc1C#Cc1cnc2c(Nc3cn[nH]c3)cccn12 [Example 90, 5-((8-((1H-pyrazol-4-yl)amino)imidazo[1,2-a]pyridin-3-yl)ethynyl)-N-(3-(2-cyanopropan-2-yl)-4-((4-methylpiperazin-1-yl)methyl)phenyl)-2-fluoro-4-methylbenzamide]",50 to 500,< 50,< 10,100,100,< 10
"Cc1cc(F)c(C(=O)Nc2ccc(CN3CCC(N(C)C)C3)c(C(C)(C)C#N)c2)cc1C#Cc1cnc2c(Nc3cn[nH]c3)cccn12 (stereo not drawn) [Example 91, 5-((8-((1H-pyrazol-4-yl)amino)imidazo[1,2-a]pyridin-3-yl)ethynyl)-N-(3-(2-cyanopropan-2-yl)-4-((3-(dimethylamino)pyrrolidin-1-yl)methyl)phenyl)-2-fluoro-4-methylbenzamide]",500 to 5000,50 to 500,< 10,> 100,> 100,< 10
"Cc1cc(F)c(C(=O)Nc2ccc(CN3CCN(CCO)CC3)c(C(C)(C)C#N)c2)cc1C#Cc1cnc2c(Nc3cn[nH]c3)cccn12 [Example 92, 5-((8-((1H-pyrazol-4-yl)amino)imidazo[1,2-a]pyridin-3-yl)ethynyl)-N-(3-(2-cyanopropan-2-yl)-4-((4-(2-hydroxyethyl)piperazin-1-yl)methyl)phenyl)-2-fluoro-4-methylbenzamide]",500 to 5000,< 50,< 10,100,100,< 10

# — patent US12673945B2, “3-((8-((1H-pyrazol-4-yl)amino)imidazo[1,2-a]pyridin-3-yl)ethinyl)-n-phenylbenzamide derivative, method for preparing same, and pharmaceutical composition containing same as active ingredient for prevention or treatment of cancer” (DAEGU-GYEONGBUK MEDICAL INNOVATION FOUNDATION, priority 2020, dated 2026)
